Experiments:
[1] = molecular target: T1, Aβ oligomers (HMW and LMW fractions) (Homo sapiens, UniProt P05067); experiment: SEC analysis of Aβ oligomer – ligand mixtures (affinity precipitation); conditions: 50 µM Aβ oligomers, injected after filtration
T1 construct: a depsipeptide derivative of Aβ(1–42) was utilized; made in house; host or cells: chemical peptide synthesis (no expression host)
Method: This hypothesis was tested via SEC analysis (Figure 10A). Mixtures of 50 µM Aβ oligomers with 7 in 0.25 and 1.0 equivalents were injected on the SEC column after filtration. […] We concluded that the affinity precipitation occurs for the HMW component, but the LMW fraction is also affected at higher ligand concentrations. […] Thus it was possible to test if the LMW fraction co-elutes with 7. […] The HMW precipitate was also tested for the presence of 7 with LC-MS, and the result confirmed the heterocomplex nature of the product (Figure 10C).
Figure 10 Lower tendency of the LMW Aβ oligomer fraction to affinity precipitation. (A) SEC analysis of pure Aβ oligomers (black) and mixtures of 50 µM Aβ oligomers with 7 in 0.25 (green) and 1.0 (blue) equivalents. The samples were injected on the SEC column after filtration. […] (B) LC-MS results on the LMW fraction taken at 19 min. […] (C) LC-MS results on the HMW precipitate, which confirmed the heterocomplex nature of the product.
iso-Aβ(1–42) was dissolved in sodium hydrocarbonate buffered saline (pH 7.4) to 50 µM and incubated for 24 h at 37°C. The oligomeric Aβ was loaded onto an Äkta Purifier FPLC system (GE Healthcare, UK) equipped with a Superose 6 10 300 column. Sample was eluted at a flow rate of 0.5 ml/min. FPLC chromatogram was taken at 280 nm and 1 ml fractions were collected during the separation.

[2] = molecular target: T2, Aβ oligomers (Homo sapiens, UniProt P05067); experiment: Electronic circular dichroism of Aβ oligomer with ligand; conditions: 0.25 equivalents ligand with 36 μM Aβ
T2 construct: a depsipeptide derivative of Aβ(1–42) was utilized; made in house; host or cells: chemical peptide synthesis (no expression host)
Description: The data on 7 were in agreement with its largely helical structure, also found via NMR. […] This was in accord with the NMR results obtained for the recognition segment 1. The secondary structure was probed also with ThT binding experiments (Figure 9B). Pure Aβ oligomers bound ThT at a certain level. This was in accord with the staining with antibody OC; both are capable of recognizing the fibrillar (or protofibrillar) oligomers. […] The latter process is similar to affinity precipitation.
(A) Observed ellipticities in ECD for 36 μM Aβ oligomer (thick black), 9 μM 7 (thin black), and 36 μM Aβ +9 μM 7 (thick dashed). The hypothetical sum of the ECD curves of the pure samples (thin dashed). (B) ThT binding experiment carried out on 36 µM oligomeric Aβ (white bars) and on 36 µM oligomeric Aβ +7 1∶1 mixtures. The relative fluorescence values were monitored up to 24 h.
CD spectra were measured on a Jasco J815 dichrograph in a 1.00 cm cell using PBS (pH = 7.4) as solvent. Three spectra were accumulated for each sample. The baseline spectrum recorded with only the solvent and it was subtracted from the raw data.

[3] = molecular target: T3, LMW fraction of Aβ oligomers (Homo sapiens, UniProt P05067); experiment: Concentration-dependent dot blot with SEC-separated LMW Aβ oligomer fraction; format: binding; conditions: 10 µg ligand spotted, BAM10 1∶500
T3 construct: a depsipeptide derivative of Aβ(1–42) was utilized; made in house; host or cells: chemical peptide synthesis (no expression host)
Method: ITC measurement for 7 indicated fractional stoichiometry for the low nM binding, which pointed to that the high affinity interaction involves only a fraction of the oligomeric Aβ sample. To localize the strongly binding fraction in the mixture, size exclusion chromatographic (SEC) separation was carried out and the resulting Aβ oligomer fractions were tested with 7 in concentration-dependent dot blot experiments. Two dominant peaks were found in the SEC chromatogram corresponding to the high molecular weight (HMW) and low molecular weight (LMW) components (Figure 7). […] In control experiments, specific and/or preferential binding of Aβ by the membrane itself were ruled out. These findings were in line with the ITC and ELISA results. It could be concluded that 7 preferentially bound to the LMW fraction at low nM concentration and also interacted with the HMW fraction at sub-µM level.
Figure 7 Selective binding to the LMW Aβ oligomers in the nM range. Size exclusion chromatographic separation of the HMW and LMW fractions of the Aβ oligomeric sample (top panel). Concentration-dependent dot blot experiments performed with the HMW (A) and the LMW fractions (B). The ligand loadings were 10 µg aliquots of 7, and the sequence specific antibody BAM10 (1∶500) was utilized. Lanes within the panels are parallel experiments. […]

[4] = molecular target: T4, monomeric Aβ (Homo sapiens, UniProt P05067); experiment: ITC titration with monomeric Aβ sample; format: binding
T4 construct: In this work, a depsipeptide derivative of Aβ(1–42) was utilized; made in house; host or cells: chemical peptide synthesis (no expression host)

N=C(N)NCCC[C@@H](CC(=O)N[C@H]1CCCC[C@@H]1C(=O)N[C@H]1CCCC[C@@H]1C(=O)N[C@@H](CC(=O)O)CC(=O)N[C@H]1CCCC[C@@H]1C(=O)NCC(=O)NCC(=O)N[C@@H](CSC1CC(=O)N(CCC(=O)NCCNC(=O)CCN(CCC(=O)NCCNC(=O)CCN2C(=O)CC(SC[C@H](NC(=O)CNC(=O)CNC(=O)[C@H]3CCCC[C@@H]3NC(=O)C[C@H](CC(=O)O)NC(=O)[C@H]3CCCC[C@@H]3NC(=O)[C@H]3CCCC[C@@H]3NC(=O)C[C@H](CCCNC(=N)N)NC(=O)[C@H]3CCCC[C@@H]3N)C(N)=O)C2=O)CCN(CCC(=O)NCCNC(=O)CCN2C(=O)CC(SC[C@H](NC(=O)CNC(=O)CNC(=O)[C@H]3CCCC[C@@H]3NC(=O)C[C@H](CC(=O)O)NC(=O)[C@H]3CCCC[C@@H]3NC(=O)[C@H]3CCCC[C@@H]3NC(=O)C[C@H](CCCNC(=N)N)NC(=O)[C@H]3CCCC[C@@H]3N)C(N)=O)C2=O)CCC(=O)NCCNC(=O)CCN2C(=O)CC(SC[C@H](NC(=O)CNC(=O)CNC(=O)[C@H]3CCCC[C@@H]3NC(=O)C[C@H](CC(=O)O)NC(=O)[C@H]3CCCC[C@@H]3NC(=O)[C@H]3CCCC[C@@H]3NC(=O)C[C@H](CCCNC(=N)N)NC(=O)[C@H]3CCCC[C@@H]3N)C(N)=O)C2=O)C1=O)C(N)=O)NC(=O)[C@H]1CCCC[C@@H]1N (some centres unmarked) [Compound 7]
SEC: effect on HMW and LMW Aβ fractions at 0.25 equivalents of ligand ([1]; 0.25 equivalents): the HMW fraction fully precipitated and disappeared from the SEC chromatogram, whereas the LMW fraction remained intact
SEC: effect on HMW and LMW Aβ fractions at 1.0 equivalents of ligand ([1]; 1.0 equivalents): the HMW fraction again disappeared and a partial decrease was observed for the LMW fraction
ECD: effect on β-sheet content of Aβ [2]: did not lead to an immediate increase in the β-sheet content
Dot blot binding of LMW Aβ oligomer fraction [3]: saturation of binding in the low nanomolar region
Binding in ITC titration with monomeric Aβ sample [4]: did not exhibit submicromolar binding
